Test results taken from ChEMBL document CHEMBL1201862, “PubChem BioAssay data set” (2004).
The source made the active and inactive calls.

How the values were obtained:
Orexin receptor type 2 [1] = target: T1, Orexin receptor type 2 (Homo sapiens, UniProt O43614); assay: Counterscreen assay for antagonists of the orexin 1 receptor (OX1R; HCRTR1): Homogeneous Time Resolved Fluorescence (HTRF)-based cell-based dose response assay for antagonists of the orexin 2 receptor (OX2R; HCRTR2), run by assay provider.; format: functional
T1 sequence (O43614 whole entry): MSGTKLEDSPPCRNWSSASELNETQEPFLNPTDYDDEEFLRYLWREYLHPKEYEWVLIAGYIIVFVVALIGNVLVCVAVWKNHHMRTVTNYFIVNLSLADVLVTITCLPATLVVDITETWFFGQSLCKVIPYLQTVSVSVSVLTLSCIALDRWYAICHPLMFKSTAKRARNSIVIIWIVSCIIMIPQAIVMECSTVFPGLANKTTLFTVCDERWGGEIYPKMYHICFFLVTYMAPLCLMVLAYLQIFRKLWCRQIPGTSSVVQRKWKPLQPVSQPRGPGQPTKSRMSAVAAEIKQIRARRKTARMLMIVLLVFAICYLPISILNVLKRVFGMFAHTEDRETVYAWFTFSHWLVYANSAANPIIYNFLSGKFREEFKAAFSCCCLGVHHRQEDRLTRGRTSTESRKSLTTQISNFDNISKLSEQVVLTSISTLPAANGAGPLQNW

[2] = Counterscreen for antagonists of the orexin 1 receptor (OX1R; HCRTR1): Fluorescence-based cell-based high throughput dose response assay to identify antagonists of the parental CHO cell line. [Related pubchem assays (depositor defined):AID434989, AID435008, AID463079, AID485270, AID492963, AID492964, AID492965, AID493232, AID504699, AID504701]; format: functional
Cytochrome P450 1A2 = target: T2, Cytochrome P450 1A2 (Homo sapiens, UniProt P05177);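 further: PubChem cytochrome P450 panel assay, CYP1A2 panel member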
T2 sequence (P05177 whole entry): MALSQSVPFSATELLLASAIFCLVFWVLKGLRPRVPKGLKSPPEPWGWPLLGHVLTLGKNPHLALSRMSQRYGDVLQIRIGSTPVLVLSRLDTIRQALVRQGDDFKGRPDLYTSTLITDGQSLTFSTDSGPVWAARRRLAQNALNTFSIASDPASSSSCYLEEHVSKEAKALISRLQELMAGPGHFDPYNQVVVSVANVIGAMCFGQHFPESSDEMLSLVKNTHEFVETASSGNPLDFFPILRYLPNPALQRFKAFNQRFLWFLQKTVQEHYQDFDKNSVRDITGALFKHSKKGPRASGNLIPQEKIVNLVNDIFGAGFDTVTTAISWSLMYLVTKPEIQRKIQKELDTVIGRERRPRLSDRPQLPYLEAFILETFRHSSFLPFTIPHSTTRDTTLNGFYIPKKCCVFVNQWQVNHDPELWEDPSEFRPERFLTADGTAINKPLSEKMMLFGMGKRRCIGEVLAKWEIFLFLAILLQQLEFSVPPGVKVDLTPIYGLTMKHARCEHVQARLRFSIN

[3] = target: T3, Orexin/Hypocretin receptor type 1 (Homo sapiens, UniProt O43613); assay: Homogeneous Time Resolved Fluorescence (HTRF)-based cell-based high throughput dose response assay for antagonists of the orexin 1 receptor (OX1R; HCRTR1). [Related pubchem assays (depositor defined):AID434989, AID435008, AID463079, AID485270, AID492963, AID492964, AID492965, AID493232, AID504717, AID504718]; format: functional
T3 sequence (O43613 whole entry): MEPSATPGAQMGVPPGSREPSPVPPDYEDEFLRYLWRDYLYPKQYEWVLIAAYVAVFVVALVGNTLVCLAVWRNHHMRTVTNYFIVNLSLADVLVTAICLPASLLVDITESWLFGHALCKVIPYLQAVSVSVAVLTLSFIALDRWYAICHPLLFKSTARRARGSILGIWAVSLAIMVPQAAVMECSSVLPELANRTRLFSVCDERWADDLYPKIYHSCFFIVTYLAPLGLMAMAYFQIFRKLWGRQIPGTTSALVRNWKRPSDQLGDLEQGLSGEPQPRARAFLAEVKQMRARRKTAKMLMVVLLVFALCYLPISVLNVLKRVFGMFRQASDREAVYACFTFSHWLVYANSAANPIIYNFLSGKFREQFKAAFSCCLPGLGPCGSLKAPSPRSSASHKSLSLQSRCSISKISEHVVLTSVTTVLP

[4] = target: T3, Orexin/Hypocretin receptor type 1; assay: Fluorescence-based cell-based high throughput dose response assay for antagonists of the orexin 1 receptor (OX1R; HCRTR1). [Related pubchem assays (depositor defined):AID434989, AID435008, AID463079, AID485270, AID492963, AID492964, AID492965, AID493232, AID504717, AID504718]; format: functional
Orexin receptor type 2 [5] = target: T1, Orexin receptor type 2; assay: Counterscreen assay for antagonists of the orexin 1 receptor (OX1R; HCRTR1): Fluorescence-based cell-based dose response assay for antagonists of the orexin 2 receptor (OX2R; HCRTR2), run by assay provider.; format: functional
CHO-K1 = assay: Counterscreen for antagonists of the orexin 1 receptor (OX1R; HCRTR1): Homogeneous time resolved fluorescence (HTRF)-based cell-based dose response assay to identify antagonists of the parental CHO-K1 cell line. [Related pubchem assays (depositor defined):AID434989, AID435008, AID463079, AID485270, AID492963, AID492964, AID492965, AID493232, AID504699, AID504701]; format: functional; conditions: Cricetulus griseus;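 further: potency for inhibition of ATP-stimulated IP1 production as antagonists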
[6] = target: T4, Sentrin-specific protease 6 (Homo sapiens, UniProt Q9GZR1); format: functional;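 further: Luminescence-based dose-response confirmatory assay of SENP6 inhibition, following up an ultra-high-throughput screen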
T4 sequence (Q9GZR1 whole entry): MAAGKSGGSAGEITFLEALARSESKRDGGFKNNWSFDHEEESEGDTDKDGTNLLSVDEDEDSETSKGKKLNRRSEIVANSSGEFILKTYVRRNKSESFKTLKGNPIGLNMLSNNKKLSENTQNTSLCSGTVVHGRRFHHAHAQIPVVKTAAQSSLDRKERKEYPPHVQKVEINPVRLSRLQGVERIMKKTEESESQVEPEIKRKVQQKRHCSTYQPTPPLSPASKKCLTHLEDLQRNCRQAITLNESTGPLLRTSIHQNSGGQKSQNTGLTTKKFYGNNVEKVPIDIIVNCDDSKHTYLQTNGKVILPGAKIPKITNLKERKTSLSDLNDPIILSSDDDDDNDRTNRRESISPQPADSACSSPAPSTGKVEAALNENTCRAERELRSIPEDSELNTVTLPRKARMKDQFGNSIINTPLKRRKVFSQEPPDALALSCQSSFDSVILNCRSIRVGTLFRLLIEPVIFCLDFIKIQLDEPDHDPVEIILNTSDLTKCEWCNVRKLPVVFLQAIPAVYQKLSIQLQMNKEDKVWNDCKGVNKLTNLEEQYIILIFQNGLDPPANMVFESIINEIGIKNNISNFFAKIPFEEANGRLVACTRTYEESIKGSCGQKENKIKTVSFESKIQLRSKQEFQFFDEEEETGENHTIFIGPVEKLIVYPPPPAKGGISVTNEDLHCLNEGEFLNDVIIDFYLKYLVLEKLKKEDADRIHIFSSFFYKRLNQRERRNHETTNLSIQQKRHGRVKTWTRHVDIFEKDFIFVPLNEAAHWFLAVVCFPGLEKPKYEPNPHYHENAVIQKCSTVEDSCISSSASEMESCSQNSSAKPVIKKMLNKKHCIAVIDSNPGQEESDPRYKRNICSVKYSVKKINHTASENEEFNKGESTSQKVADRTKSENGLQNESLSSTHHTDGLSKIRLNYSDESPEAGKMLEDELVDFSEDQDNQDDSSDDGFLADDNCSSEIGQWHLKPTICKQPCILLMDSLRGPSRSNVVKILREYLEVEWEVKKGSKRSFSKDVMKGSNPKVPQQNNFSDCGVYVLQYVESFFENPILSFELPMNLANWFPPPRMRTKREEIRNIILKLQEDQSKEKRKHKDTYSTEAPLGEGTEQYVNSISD

[7] = target: T5, Sentrin-specific protease 7 (Homo sapiens, UniProt Q9BQF6); format: functional;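 further: Luminescence-based dose-response confirmation of ultra-high-throughput screening hits, measuring inhibition of SENP7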
T5 sequence (Q9BQF6 whole entry): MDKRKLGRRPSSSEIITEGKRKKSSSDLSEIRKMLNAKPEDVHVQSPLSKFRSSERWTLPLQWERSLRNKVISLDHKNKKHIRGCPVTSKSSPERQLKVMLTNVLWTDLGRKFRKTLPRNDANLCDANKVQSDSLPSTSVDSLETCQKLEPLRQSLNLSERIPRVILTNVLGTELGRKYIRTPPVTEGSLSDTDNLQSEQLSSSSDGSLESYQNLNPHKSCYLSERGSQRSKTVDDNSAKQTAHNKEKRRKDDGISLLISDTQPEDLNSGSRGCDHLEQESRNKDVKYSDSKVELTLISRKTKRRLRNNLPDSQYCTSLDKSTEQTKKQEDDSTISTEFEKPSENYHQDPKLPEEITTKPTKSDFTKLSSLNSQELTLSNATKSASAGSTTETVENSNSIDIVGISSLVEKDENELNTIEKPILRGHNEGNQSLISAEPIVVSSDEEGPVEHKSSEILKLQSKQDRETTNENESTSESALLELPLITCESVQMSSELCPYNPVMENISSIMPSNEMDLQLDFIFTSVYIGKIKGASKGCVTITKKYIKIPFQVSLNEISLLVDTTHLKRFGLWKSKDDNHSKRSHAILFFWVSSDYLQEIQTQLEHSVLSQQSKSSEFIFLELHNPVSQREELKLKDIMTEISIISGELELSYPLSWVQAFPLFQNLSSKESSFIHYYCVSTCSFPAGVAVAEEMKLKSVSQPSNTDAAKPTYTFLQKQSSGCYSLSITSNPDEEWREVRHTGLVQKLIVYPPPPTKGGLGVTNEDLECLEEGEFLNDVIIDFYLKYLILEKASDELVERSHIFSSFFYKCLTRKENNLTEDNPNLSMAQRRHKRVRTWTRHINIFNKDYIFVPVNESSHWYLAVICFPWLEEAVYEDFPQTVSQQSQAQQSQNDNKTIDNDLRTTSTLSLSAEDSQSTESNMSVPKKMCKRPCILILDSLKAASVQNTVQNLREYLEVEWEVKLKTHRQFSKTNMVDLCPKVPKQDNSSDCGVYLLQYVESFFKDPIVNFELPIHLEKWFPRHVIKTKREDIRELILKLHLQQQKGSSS

Caspase-3 = target: T6, Caspase-3 (Homo sapiens, UniProt P42574); format: functional;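 further: Dose-response selectivity test against caspase-3 for candidate inhibitors of sentrin-specific proteases (SENPs)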
T6 sequence (P42574 whole entry): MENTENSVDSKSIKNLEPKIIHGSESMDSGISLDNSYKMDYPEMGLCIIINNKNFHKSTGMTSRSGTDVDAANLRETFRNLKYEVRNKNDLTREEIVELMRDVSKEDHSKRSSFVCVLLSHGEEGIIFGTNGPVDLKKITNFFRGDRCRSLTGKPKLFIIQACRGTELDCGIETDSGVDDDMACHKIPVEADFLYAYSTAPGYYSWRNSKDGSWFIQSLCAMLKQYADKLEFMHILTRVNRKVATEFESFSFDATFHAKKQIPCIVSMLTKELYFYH

[8] = target: T7, Sentrin-specific protease 8 (Homo sapiens, UniProt Q96LD8); format: functional;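 further: luminescence read-out of SENP8 inhibition, dose-response confirmation following an ultra-high-throughput screen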
T7 sequence (Q96LD8 whole entry): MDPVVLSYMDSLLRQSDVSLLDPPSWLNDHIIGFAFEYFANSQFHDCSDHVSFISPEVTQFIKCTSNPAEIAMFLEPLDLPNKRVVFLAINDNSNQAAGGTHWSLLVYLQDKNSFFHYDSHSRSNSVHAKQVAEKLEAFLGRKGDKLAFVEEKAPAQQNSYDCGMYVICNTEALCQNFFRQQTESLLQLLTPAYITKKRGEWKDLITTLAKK

HEK293 = assay: EBV LMP1 TES2 canonical NF-kB signalling blockers – cell-based, HEK293, luciferase, cherry-pick, dose response (AID 588343); format: functional; conditions: Homo sapiens
[9] = reduction of Shn3 3'UTR-driven luciferase in osteoblasts – cell-based, Clone20 osteoblasts, firefly luciferase, cherry-picked, dose response (AID 624132); format: functional;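 further: firefly luciferase luminescence from reporter carrying the Shn3 3'UTR in osteoblasts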
[10] = non-specific 3'UTR reporter inhibition in Clone20-Shn3RL – cell-based, Renilla luciferase, cherry-picked, counter-screen for Shn3 inhibitor project, dose response (AID 624133); format: functional
[11] = loss of viability in HepG2 cells – cell-based, CellTiter-Glo, cherry-picked, cytotoxicity control for Shn3 inhibitor project, dose response (AID 624134); format: functional

Compound | IC50 (Orexin receptor type 2 [1]) | IC50 [2] | IC50 [3] | IC50 [4] | IC50 (Orexin receptor type 2 [5]) | IC50 (CHO-K1) | also measured
Cc1cccc(NC(=O)NNC(=O)c2cc(-c3ccccc3Cl)nc3ccccc23)c1 | 27.1 µM (inactive) | 48 µM (inactive) | 0.815 µM (active) | 13.5 µM (inactive) | 16.4 µM (inactive) | > 66.3 µM (inactive) | AC50 (Cytochrome P450 1A2): 15.8 µM (inconclusive)
Cc1c(C(=O)O)cccc1-c1ccc(/C=C2/NC(=O)N(c3ccccc3)C2=O)o1 | – | – | – | – | – | – | IC50 [6]: 28.6 µM (active); IC50 [7]: 21.2 µM (active); IC50 (Caspase-3): > 100 µM (inactive); IC50 [8]: 45 µM (active)
C=CCn1c(SCC(=O)Nc2cc3oc4ccccc4c3cc2OC)nnc1-c1cnccn1 | > 50 µM (inactive) | > 49.7 µM (inactive) | 0.339 µM (active) | 3.14 µM (active) | 10.4 µM (inactive) | > 66.2 µM (inactive) | –
CSc1cccc(NC(=O)C2CCCN(S(=O)(=O)c3ccc(F)cc3)C2)c1 (configuration not stated) | 14.2 µM (inactive) | > 49.8 µM (inactive) | 1.59 µM (active) | 10.4 µM (inactive) | 8.4 µM (active) | > 66.2 µM (inactive) | –
N=C(NOC(=O)c1cccc(Br)c1)c1ccccn1 | – | – | – | – | – | – | AC50 (HEK293): 21.8 µM (active)
CCCCC(=O)NC(c1ccc(OC)c(OC)c1)c1ccc2cccnc2c1O (configuration not stated) | – | – | – | – | – | – | AC50 [9]: 1.36 µM (active); AC50 (HEK293): 7.93 µM (active); AC50 [10]: 1.4 µM (active); AC50 [11]: 60.1 µM (active)
O=C(O)c1ccc(-c2ccc(OS(=O)(=O)c3ccccc3F)cc2)cc1 | – | – | – | – | – | – | IC50 [6]: 35 µM (active); IC50 [7]: 6.6 µM (active); IC50 (Caspase-3): > 100 µM (inactive); IC50 [8]: 56.4 µM (active)
